Laboratory results: patent US8937084B2, “Nitrogen containing morphinan derivatives and the use thereof” (Purdue Pharma L.P., priority 2012, dated 2015)

What was measured:
δ opioid receptor [1] = biological target: T1, δ opioid receptor (Homo sapiens (Human), UniProt P41143); assay: δ-opioid receptor [35S]GTPγS functional assay, HEK-293 or CHO cells; assay type: biochemical; conditions: for EC50: GTPγS; for Emax: relative to met-enkephalin
Protocol: δ-Opioid Receptor Functional Assay Procedures: Functional [^35S]GTPγS binding assays were conducted as follows. 5 opioid receptor membrane solution was prepared by sequentially adding final concentrations of […] δ membrane protein (Perkin Elmer, Shelton, Conn.), 10 μg/mL saponin, 3 µM GDP and 0.20 nM [^35S]GTPγS to binding buffer (100 mM NaCl, 10 mM MgCl2, 20 mM HEPES, pH 7.4) on ice. The prepared membrane solution ([…]) was transferred to 96-shallow well polypropylene plates containing 10 μl of 20× concentrated stock solutions of agonist prepared in DMSO. Plates were incubated for 30 min at a temperature of about 25° C. with shaking. Reactions were terminated by rapid filtration onto 96-well Unifilter GF/B filter plates (Perkin Elmer, Shelton, Conn.) using a 96-well tissue harvester (Packard) and followed by three filtration washes with 200 μl ice-cold binding buffer (10 mM NaH2PO4, 10 mM Na2HPO4, pH 7.4). Filter plates were subsequently dried at 50° C. for 1-2 hours. Fifty μl/well scintillation cocktail (Perkin Elmer, Shelton, Conn.) was added and plates were counted in a Packard Top-count for 1 min/well.
δ-Oploid Receptor Functional Data: δ GTP EC50 is the concentration of a compound providing 50% of the maximal response for the compound at a δ receptor.
δ GTP Emax (%) is the maximal effect elicited by a compound relative to the effect elicited by met-enkephalin.
In TABLE 2, activity response of certain Compounds of the Invention to the μ-, δ- and κ-opioid receptors was determined as described above for functional assays using HEK-293 or CHO cells.

μ-opioid receptor = μ-opioid receptor (Homo sapiens (Human), UniProt P35372); assay: μ-opioid receptor radioligand dose-displacement binding assay ([3H]-diprenorphine)
Protocol: μ-Opioid Receptor Binding Assay Procedures: Radioligand dose-displacement binding assays for μ-opioid receptors used 0.3 nM [^3H]-diprenorphine (Perkin Elmer, Shelton, Conn.), with […] membrane protein/well in a final volume of 500 μl binding buffer (10 mM MgCl2, 1 mM EDTA, 5% DMSO, 50 mM HEPES, pH 7.4). Reactions were carried out in the absence or presence of increasing concentrations of unlabeled naloxone. All reactions were conducted in 96-deep well polypropylene plates for 2 hours at room temperature. Binding reactions were terminated by rapid filtration onto 96-well Unifilter GF/C filter plates (Perkin Elmer, Shelton, Conn.), presoaked in 0.5% polyethylenimine using a 96-well tissue harvester (Perkin Elmer, Shelton, Conn.) followed by performing three filtration washes with 500 μl of ice-cold binding buffer. Filter plates were subsequently dried at 50° C. for 2-3 hours. BetaScint scintillation cocktail (Perkin Elmer, Shelton, Conn.) was added (50 μl/well), and plates were counted using a Packard Top-Count for 1 min/well. The data were analyzed using the one-site competition curve fitting functions in GraphPad PRISM™ v. 3.0 or higher (San Diego, Calif.), or an in-house function for one-site competition curve-fitting.
(§1) In TABLE 1, binding affinity of certain Compounds of the Invention to the μ-, δ- and κ-opioid receptors was determined as described above.

δ opioid receptor [2] = biological target: T1, δ opioid receptor; assay: δ-opioid receptor radioligand dose-displacement binding assay ([3H]-Naltrindole)
Protocol: δ-Oploid Receptor Binding Assay Procedures: δ-Opioid Receptor Binding Assay Procedures were conducted as follows. Radioligand dose-displacement assays used 0.3 nM [^3H]-Naltrindole (Perkin Elmer, Shelton, Conn.; 33.0 Ci/mmole) with 5 μg membrane protein (Perkin Elmer, Shelton, Conn.) in a final volume of 500 μl binding buffer (5 mM MgCl2, 5% DMSO, 50 mM Trizma base, pH 7.4). Non-specific binding was determined in the presence of 25 μM unlabeled naloxone. All reactions were performed in 96-deep well polypropylene plates for 1 hour at a temperature of about 25° C. Binding reactions were terminated by rapid filtration onto 96-well Unifilter GF/C filter plates (Perkin Elmer, Shelton, Conn.) presoaked in 0.5% polyethylenimine (Sigma). Harvesting was performed using a 96-well tissue harvester (Perkin Elmer, Shelton, Conn.) followed by five filtration washes with 500 μl ice-cold binding buffer. Filter plates were subsequently dried at 50° C. for 1-2 hours. Fifty μl/well scintillation cocktail (Perkin Elmer, Shelton, Conn.) was added and plates were counted in a Packard Top-Count for 1 min/well.
as §1

[3] = biological target: recombinant human kappa opioid receptor (κ) (Homo sapiens (Human), UniProt P41145); assay: κ-opioid receptor radioligand dose-displacement binding assay ([3H]-U69,593)
Protocol: κ-Opioid Receptor Binding Assay Procedures: Membranes from HEK-293 cells, CHO or U-2 OS cells expressing the recombinant human kappa opioid receptor (κ) (cloned in house) were prepared by lysing cells in ice cold hypotonic buffer (2.5 mM MgCl2, 50 mM HEPES, pH 7.4) (10 mL/10 cm dish) followed by homogenization with a tissue grinder/Teflon pestle. Membranes were collected by centrifugation at 30,000×g for 15 min at 4° C. and pellets were resuspended in hypotonic buffer to a final concentration of 1-3 mg/mL. Protein concentrations were determined using the BioRad protein assay reagent with bovine serum albumen as standard. Aliquots of κ receptor membranes were stored at −80° C.
Radioligand dose displacement assays used 0.4 nM [^3H]-U69,593 (GE Healthcare, Piscataway, N.J.; 40 Ci/mmole) with 15 μg membrane protein (recombinant κ opioid receptor expressed in HEK 293 cells; in-house prep) in a final volume of 200 μl binding buffer (5% DMSO, 50 mM Trizma base, pH 7.4). Non-specific binding was determined in the presence of 10 μM unlabeled naloxone or U69,593. All reactions were performed in 96-well polypropylene plates for 1 hour at a temperature of about 25° C. Binding reactions were terminated by rapid filtration onto 96-well Unifilter GF/C filter plates (Perkin Elmer, Shelton, Conn.) presoaked in 0.5% polyethylenimine (Sigma). Harvesting was performed using a 96-well tissue harvester (Perkin Elmer, Shelton, Conn.) followed by five filtration washes with 200 μl ice-cold binding buffer. Filter plates were subsequently dried at 50° C. for 1-2 hours. Fifty μl/well scintillation cocktail (Perkin Elmer, Shelton, Conn.) was added and plates were counted in a Packard Top-Count for 1 min/well.
as §1

T1 sequence (P41143 whole entry, looked up): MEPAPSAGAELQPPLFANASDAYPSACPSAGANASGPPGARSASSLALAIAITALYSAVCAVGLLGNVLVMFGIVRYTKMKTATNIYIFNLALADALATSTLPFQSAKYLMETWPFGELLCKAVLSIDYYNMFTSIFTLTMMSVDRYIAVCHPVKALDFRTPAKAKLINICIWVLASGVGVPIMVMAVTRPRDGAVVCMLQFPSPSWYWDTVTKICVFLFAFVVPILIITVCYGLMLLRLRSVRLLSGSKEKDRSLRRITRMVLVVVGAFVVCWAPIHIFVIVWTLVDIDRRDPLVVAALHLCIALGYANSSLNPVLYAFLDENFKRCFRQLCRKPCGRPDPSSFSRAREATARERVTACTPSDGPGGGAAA

O=C1C[C@]23CCN(CC4CC4)[C@H](Cc4ccc(O)cc42)[C@@H]3CN1 [Compound 7, (4aS,5R,10bS)-13-(cyclopropylmethyl)-9-hydroxy-4,4-a,5,6-tetrahydro-1H-5,10b-(epiminoethano)benzo[f]isoquinolin-2(3H)-one]
EC50 (δ opioid receptor [1]): 0.0087 ± 0.00125 µM | Emax (δ opioid receptor [1]): 85.7 ± 6.89% | Ki (μ-opioid receptor): 5.61 ± 0.44 nM | Ki (δ opioid receptor [2]): 15 ± 3.45 nM | Ki [3]: 0.18 ± 0.02 nM

Oc1ccc2c(c1)[C@@]13CCNC[C@H]1[C@@H](C2)N(CC1CC1)CC3 [Compound 13, (4aS,5R,10bR)-13-(cyclopropylmethyl)-2,3,4,4a,5,6-hexahydro-1H-5,10b-(epiminoethano)benzo[f]isoquinolin-9-ol]
EC50 (δ opioid receptor [1]): 0.0365 ± 0.0111 µM | Emax (δ opioid receptor [1]): 83.3 ± 1.45% | Ki (μ-opioid receptor): 50.4 ± 16.7 nM | Ki (δ opioid receptor [2]): 174 ± 33.7 nM | Ki [3]: 0.21 ± 0.04 nM

NC(=O)CN1C[C@H]2[C@H]3Cc4ccc(O)cc4[C@@]2(CCN3CC2CC2)CC1=O [Compound 4, 2-((4aS,5R,10bS)— 13-(cyclopropylmethyl)-9-hydroxy-2-oxo-4,4-a,5,6-tetrahydro-1H-5,10b-(epiminoethano)benzo[f]isoquinolin-3(2H)-yl)acetamide]
EC50 (δ opioid receptor [1]): 0.00906 ± 0.00094 µM | Emax (δ opioid receptor [1]): 109 ± 3.28% | Ki (μ-opioid receptor): 24.4 ± 7.61 nM | Ki (δ opioid receptor [2]): 49 ± 17.7 nM | Ki [3]: 0.55 ± 0.08 nM

O=C1C[C@]23CCN(CC4CC4)[C@H](Cc4ccc(O)cc42)[C@@H]3CN1Cc1ccc(O)cc1 [Compound 5, (4aS,5R,10bS)-13-(cyclopropylmethyl)-9-hydroxy-3-(4-hydroxybenzyl)-4,4-a,5,6-tetrahydro-1H-5,10b-(epiminoethano)benzo[f]isoquinolin-2(3H)-one]
EC50 (δ opioid receptor [1]): 0.00439 ± 0.00093 µM | Emax (δ opioid receptor [1]): 71 ± 6.08% | Ki (μ-opioid receptor): 12.8 ± 1.55 nM | Ki (δ opioid receptor [2]): 22.9 ± 8.53 nM | Ki [3]: 6.27 ± 1.45 nM

O=C(O)CN1C[C@H]2[C@H]3Cc4ccc(O)cc4[C@@]2(CCN3CC2CC2)CC1=O [Compound 8, 2-((4aS,5R,10bS)-13-(cyclopropylmethyl)-9-hydroxy-2-oxo-4,4-a,5,6-tetrahydro-1H-5,10b-(epiminoethano)benzo[f]isoquinolin-3(2H)-yl)acetic acid]
EC50 (δ opioid receptor [1]): 0.00241 ± 0.00029 µM | Emax (δ opioid receptor [1]): 110 ± 3.11% | Ki (μ-opioid receptor): 21.2 ± 6.62 nM | Ki (δ opioid receptor [2]): 82.2 ± 30.1 nM | Ki [3]: 4.03 ± 0.07 nM
